How the values were obtained:
Type in all cases: cell-based
[1] = system: EpiDERM 3D model of epidermis; experiment: In vitro test of skin irritation in EpiDERM
Experimental: EpiDERM™ is a 3D model of epidermis manufactured by Mattek company. The effects of tested substances are evaluated by MTT. 2 solutions (2 application forms) of the compounds 6-furfurylamino-9-β-D-arabinofuranosylpurine and 6-(3-methoxybenzylamino)-9-β-D-arabinofuranosylpurine in concentrations 1 mM a 200 microM in 0.5% DMSO/99.5% PBS were evaluated according to a standard protocol “INVITRO EpiDerm™ SKIN IRRITATION TEST”. After a preincubation of the tissues, 30 microliters of the application form solution were applied on the individual tissues. The exposition time was 60 minutes. Three tissues were used for each tested concentration as well as for controls. Following washing out of the applied solution, the tissues were incubated for 42 hour in order to allow a reparation of possible damage. In the next step, the tissue was incubated with MTT for 3 hours. The resulting formazan was extracted to isopropanol. Relative viability of the individual tissues was calculated as a percentage of viability of the average of the negative controls. Average viability of the tissues treated with 1 mM solution of the test substance was 99.3% for the compound 6-(3-methoxybenzylamino)-9-β-D-arabinofuranosylpurine and 98.0% for the compound 6-(furfurylamino)-9-β-D-arabinofuranosylpurine where 100% is an average viability of the tissues treated with the solvent only. None of the tested compounds in any of the concentrations caused any tissue damage or irritation. The compounds were evaluated as non-irritant in the tested concentrations.

[2] = system: Normal human dermal fibroblasts (NHDF); experiment: In vitro UVB photoprotection test (neutral red); conditions: UVB 400 mJ/cm^2, 0.9; 1.8; 3.9 a 7.8 μmol/l, 60 minutes pre-incubation
Source text: Normal human dermal fibroblasts (NHDF) were used as an in vitro model. Cells were isolated from tissue specimens obtained from healthy patients undergoing plastic surgery at the Department of Plastic and Aesthetic Surgery (University Hospital Olomouc). The use of skin tissue was in accordance with the Ethics Committee of the University Hospital and Faculty of Medicine and Dentistry, Palacký University, Olomouc and all patients signed written informed consent. Fibroblasts were used between the 2nd and 4th passage. For all experiments the fibroblasts were seeded onto 96-well plates at a density of 0.8×10^5 cells/ml (0.2 ml per well) of cultivation medium (DMEM supplemented with foetal calf serum (10%, v/v), penicillin […] and streptomycin (100 U/ml)).
Test compounds included 6-(3-methoxybenzylamino)-9-β-D-arabinofuranosylpurine. […] Intensity of UVA or UVB radiation was evaluated before each irradiation by UVA- or UVB-meter. […] After 24 hours (37° C., 5% CO2) cell damage was evaluated by neutral red (NR) incorporation into viable cells. […] After 5 minutes of intensive shaking absorbance was measured at 540 nm. […] Photoprotective effect was evaluated by comparison of experimental data (absorbance) of test compounds with a positive control and a negative control (according to the following equation: […]

[3] = system: skin fibroblasts BJ and keratinocytes HaCaT; experiment: MTT in vitro cytotoxicity test for skin cells; conditions: Homo sapiens; MTT, 72 hour treatment, BJ and HaCaT, maximal concentration 50 microM
Summary of the method: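 BJ fibroblasts and HaCaT keratinocytes (~5,000 cells/well, seeded 24 h prior) exposed 72 h to sixfold dilutions from 50 microM; DMSO vehicle as negative control. MTT added at 0.5 mg/ml final for 3 h, formazan dissolved in DMSO, absorbance read at 570 nm (640 nm reference). IC50 taken from dose-response curves.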

With COc1cccc(CNc2ncnc3c2ncn3[C@@H]2O[C@H](CO)[C@@H](O)[C@@H]2O)c1 [6-(3-methoxybenzylamino)-9-β-D-arabinofuranosylpurine] as the molecule, how does the skin irritation evaluation ([1]; 1 mM and 200 microM in 0.5% DMSO/99.5% PBS) read?
The skin irritation evaluation was “non-irritant”.

And the “Average viability of the tissues” value ([1]; 1 mM solution, 60 minutes exposition, 100% = solvent only)?
The value was 99.3%.

And the “viability after UVB vs DMSO control (photoprotection)” value [2]?
Its value is “higher viability”.

And the IC50 [3]?
The IC50 was over 50 µM.

— US10100077B2, “6-aryl-9-glycosylpurines and use thereof” (UNIVERZITA PALACKEHO V OLOMOUCI, priority 2014, dated 2018)
